In patent publication US12383578B2, “Carbazate-activated polyvinyl alcohol (PVAC) as a polymer-based antitumoral agent” (CREMED AB (PUBL), priority 2019, dated 2025):

Columns and labels:
GIST-T1 cells = experiment: Cell viability assay (CellTiter-Glo, ATP-based); design: species or system human; settings: biologically relevant concentrations
Protocol: 0.25×10^4-1×10^4 GIST-T1 cells were seeded into each well in a 96-well plate. PVAC, EC, and PVA were added into each well or vehicle (deionized water) with subsequent incubation for 24 or 48 hours. CellTiter-Glo assay (Promega, MI, USA) is an ATP-based luminometric method that was performed according to protocol. In brief, cells were removed from incubator to allow adjust to room temperature after which 100 μL of room temperature CellTiter-Glo was added to each well. The plates were put on a shaker for 5-10 min. Cells rested for 5-10 min before measurement on an EnVision 2103 Multilabel Reader (Perkin Elmer, MA, USA).

MDA-MB-231 tumor cells = settings: mouse, in vivo
Protocol: Following injection of MDA-MB-231 cells into athymic nude mice the animals were monitored twice weekly recording weight, general health and tumor size. When the average tumor size was approximately 100 μL the animals were stratified into three groups of 12 mice per group based on tumor size. All three groups were subjected to 28 days of twice-weekly intra/peri tumoral injections at a volume of 100 μL per injection. One group served as a control group and received NaCl (vehicle) injections. The remaining two groups received different doses of PVAC, as described above. The animals were euthanized on Day 29 and the tumors were excised, weighed, and divided into two parts handled as described above.

Animals euthanized due to infections (MDA-MB-231 tumor cells) | Compound | Cellular viability (GIST-T1 cells)
 | CCOC(=O)NN [EC, ethyl carbazate] | did not reduce cellular viability
four | Poly[1-hydroxyethylene)-ran-(1-hydrazinecarboxylatoethylene)] [PVAC] | 
